Measurements taken from patent US12419890B2, “Administration of sumo-activating enzyme inhibitor and checkpoint inhibitors” (Takeda Pharmaceutical Company Limited, priority 2019, dated 2025).

Tests used:
[1] = system: A20 syngeneic mouse B-cell lymphoma-derived subcutaneous tumor; assay: A20 Study 3: mouse A20 syngeneic tumor model, individual tumor volume; type: in vivo
Procedure: A20 Study 3: A20 is a mouse B-cell lymphoma cell line. A20 mouse syngeneic tumor model was generated by subcutaneous inoculation with 1.0×10^6 A20 cells (cell suspension) in 8 weeks old female BALB/c mice (Jackson Laboratory, 600 Main St, Bar Harbor, ME) in the flank. When the mean tumor volume reached approximately 50 mm^3, the animals were randomized into one vehicle control and three treatment groups (n=7/group). Mice were then dosed with 20% HPbCD or Compound I-263a or anti-mouse PD-1 antibody over a 11-day period. Tumor growth and body weight were measured twice per week during the treatment and post-treatment periods, and mice were humanely euthanized once they had reached their humane endpoint.
Study 3: A 1.65 mg/mL stock solution of Compound I-263a was formulated weekly in 20% HPβCD and administered intravenously (IV) based on exact animal body weight on each day of treatment, using a dosing volume of 10 mL/kg body weight. Final doses received were 15 mg/kg. Dosing volume for Compound I-263a was 0.2 mL. […]
(§1) Tumors were measured twice weekly using vernier calipers. Tumor volumes were calculated using standard equation: V=W^2×L/2, where V=volume, W=width, and L=length for the tumor. […] Tumor size and body weight were measured twice a week for the duration of the study. […]

[2] = system: JC syngeneic mouse breast adenocarcinoma-derived subcutaneous tumor; assay: JC Study 6: mouse JC syngeneic tumor model, individual tumor volume; type: in vivo; conditions: Compound I-263a 7.5 mg/kg IV or anti-mPD-1 10 mg/kg IP, BIWx3 till Day 14
Procedure: JC Study 6: JC is a mouse breast adenocarcinoma cell line. JC mouse syngeneic tumor model was generated by subcutaneous inoculation with 0.2×10^6 JC cells (cell suspension) in 10 weeks old female BALB/c mice (Vital River Laboratory Animal Technology Co., Ltd., Beijing, China) in the flank. When the mean tumor volume reached approximately 45 mm^3, the animals were randomized into one vehicle control and five treatment groups (n=8/group). Mice were then dosed with 20% HPbCD or Compound I-263a or anti-mouse PD-1 antibody over a 21-day period. Tumor growth and body weight were measured twice per week during the treatment and post-treatment periods, and mice were humanely euthanized once they had reached their humane endpoint.
Study 6: A 0.75 mg/mL stock solution of Compound I-263a was formulated weekly in 20% HPβCD and administered intravenously (IV) based on exact animal body weight on each day of treatment, using a dosing volume of 10 mL/kg body weight. Final doses received were 7.5 mg/kg. Dosing volume for Compound I-263a was 0.2 mL. […]
as §1

## Cc1sc(C(=O)c2cncnc2N[C@@H]2C[C@H](COS(N)(=O)=O)[C@@H](O)C2)cc1[C@@H]1NCCc2ccc(Cl)cc21 [Compound I-263a, [(1R,2S,4R)-4-{[5-({4-[(1R)-7-chloro-1,2,3,4-tetrahydroisoquinolin-1-yl]-5-methyl-2-thienyl}carbonyl)pyrimidin-4-yl]amino}-2-hydroxycyclopentyl]methyl sulfamate]
[1]; Compound I-263a 15 mg/kg IV QWx1 (Day 1), 7 tumors/group
  inhibition of tumor growth: modest inhibition
[1]; stasis to day 8 of treatment, followed by rapid growth, out of 7 implanted, Compound I-263a 15 mg/kg IV Day 1
  tumors in stasis: 2
[2]; 8 tumors/group
  tumor growth inhibition / antitumor activity: very little tumor growth inhibition
[2]; delay from day 16-18, out of 8 implanted
  tumors with slight growth delay: one
